# Patent publication US10202361B2, “Pyridazinones as herbicides” (E I DU PONT DE NEMOURS AND COMPANY, priority 2014, dated 2019)
# Where two headings read alike, the source gives them in different places.
# How the values were obtained:
# Assay type in all cases: in vivo
# [1] = system: poinsettia, wild (wild poinsettia, Euphorbia heterophylla); experiment: Test E pre-/postemergence greenhouse herbicide test; conditions: scale 0 to 100
# [2] = system: waterhemp (common waterhemp, Amaranthus rudis); experiment: Test C pre-/postemergence greenhouse herbicide test; conditions: Waterhemp
# Summary of the method: (§1)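 Seeds sown in loam soil–sand blend were treated preemergence; plants at 2 to 18 cm (1- to 4-leaf stage) in peat-based medium were treated postemergence. Test chemicals were formulated in a non-phytotoxic solvent mixture with surfactant. After 13 to 15 d in greenhouse, injury was rated visually versus controls, 0 (no effect) to 100 (complete control).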
# [3] = system: wheat (winter wheat, Triticum aestivum); experiment: as above; conditions: Triticum aestivum, Wheat, read-out: Plant response rating; for plant injury at 62 g/ha: 62 g ai/ha; for plant injury at 125 g/ha: 125 g ai/ha; for plant injury at 250 g/ha: 250 g ai/ha
# Summary of the method: as §1
# [4] = system: velvetleaf (Abutilon theophrasti); experiment: as above; conditions: Abutilon theophrasti, Velvetleaf, read-out: Plant response rating; for pest or weed control at 62 g/ha: 62 g ai/ha; for pest or weed control at 125 g/ha: 125 g ai/ha; for pest or weed control at 250 g/ha: 250 g ai/ha
# Summary of the method: as §1
# [5] = system: blackgrass (Alopecurus myosuroides); experiment: as above; conditions: Alopecurus myosuroides, Blackgrass, read-out: Plant response rating; for pest or weed control at 31 g/ha: 31 g ai/ha; for pest or weed control at 62 g/ha: 62 g ai/ha; for pest or weed control at 125 g/ha: 125 g ai/ha; for pest or weed control at 250 g/ha: 250 g ai/ha
# Summary of the method: as §1
# [6] = system: morningglory (Ipomoea coccinea); experiment: as above; conditions: Morningglory
# Summary of the method: as §1
# [7] = system: soybean (Glycine max); experiment: as above; conditions: Glycine max, Soybean, read-out: Plant response rating; for plant injury at 62 g/ha: 62 g ai/ha; for plant injury at 125 g/ha: 125 g ai/ha; for plant injury at 250 g/ha: 250 g ai/ha
# Summary of the method: as §1
# [8] = system: foxtail, giant (giant foxtail, Setaria faberii); experiment: as above; conditions: Setaria faberi, Foxtail, Giant, read-out: Plant response rating; for pest or weed control at 31 g/ha: 31 g ai/ha; for pest or weed control at 62 g/ha: 62 g ai/ha; for pest or weed control at 125 g/ha: 125 g ai/ha; for pest or weed control at 250 g/ha: 250 g ai/ha
# Summary of the method: as §1
# [9] = system: barnyardgrass (Echinochloa crus-galli); experiment: as above; conditions: Barnyardgrass
# Summary of the method: as §1
# [10] = post-emergence, Postemergence, 31 g ai/ha
structure (smiles),measurement,setting,value
"COc1cc(=O)n(-c2ccc(C(F)(F)F)cc2)nc1Cc1ccnc(C(F)(F)F)c1 [Compound 16, 5-methoxy-2-[4-(trifluoromethyl)phenyl]-6-[[2-(trifluoromethyl)-4-pyridinyl]methyl]-3(2H)-pyridazinone]","Plant response rating: Poinsettia, Wild","[1]; Postemergence, 62 g ai/ha",60
same,"Plant response rating: Poinsettia, Wild","[1]; Postemergence, 125 g ai/ha",70
same,"Plant response rating: Poinsettia, Wild","[1]; Postemergence, 250 g ai/ha",75
same,"Plant response rating: Poinsettia, Wild","[1]; Preemergence, 62 g ai/ha",35
same,"Plant response rating: Poinsettia, Wild","[1]; Preemergence, 125 g ai/ha",35
same,"Plant response rating: Poinsettia, Wild","[1]; Preemergence, 250 g ai/ha",65
same,Plant response rating,"[2]; Postemergence, 31 g ai/ha",80
same,Plant response rating,"[2]; Postemergence, 62 g ai/ha",90
same,Plant response rating,"[2]; Postemergence, 125 g ai/ha",95
same,Plant response rating,"[2]; Postemergence, 250 g ai/ha",98
same,Plant response rating,"[2]; Preemergence, 62 g ai/ha",100
same,Plant response rating,"[2]; Preemergence, 125 g ai/ha",100
same,Plant response rating,"[2]; Preemergence, 250 g ai/ha",100
same,plant injury at 31 g/ha,[3]; [10],5%
same,plant injury at 62 g/ha,"[3]; post-emergence, Postemergence",5%
same,plant injury at 125 g/ha,"[3]; post-emergence, Postemergence",10%
same,plant injury at 250 g/ha,"[3]; post-emergence, Postemergence",10%
same,plant injury at 62 g/ha,"[3]; pre-emergence, Preemergence",25%
same,plant injury at 125 g/ha,"[3]; pre-emergence, Preemergence",45%
same,plant injury at 250 g/ha,"[3]; pre-emergence, Preemergence",50%
same,pest or weed control at 31 g/ha,[4]; [10],25%
same,pest or weed control at 62 g/ha,"[4]; post-emergence, Postemergence",50%
same,pest or weed control at 125 g/ha,"[4]; post-emergence, Postemergence",60%
same,pest or weed control at 250 g/ha,"[4]; post-emergence, Postemergence",75%
same,pest or weed control at 62 g/ha,"[4]; pre-emergence, Preemergence",80%
same,pest or weed control at 125 g/ha,"[4]; pre-emergence, Preemergence",100%
same,pest or weed control at 250 g/ha,"[4]; pre-emergence, Preemergence",100%
same,pest or weed control at 31 g/ha,"[5]; post-emergence, Postemergence",5%
same,pest or weed control at 62 g/ha,"[5]; post-emergence, Postemergence",5%
same,pest or weed control at 125 g/ha,"[5]; post-emergence, Postemergence",5%
same,pest or weed control at 250 g/ha,"[5]; post-emergence, Postemergence",10%
same,pest or weed control at 31 g/ha,"[5]; pre-emergence, Preemergence",40%
same,pest or weed control at 62 g/ha,"[5]; pre-emergence, Preemergence",50%
same,pest or weed control at 125 g/ha,"[5]; pre-emergence, Preemergence",60%
same,pest or weed control at 250 g/ha,"[5]; pre-emergence, Preemergence",90%
same,Plant response rating,"[6]; Postemergence, 31 g ai/ha",50
same,Plant response rating,"[6]; Postemergence, 62 g ai/ha",70
same,Plant response rating,"[6]; Postemergence, 125 g ai/ha",98
same,Plant response rating,"[6]; Postemergence, 250 g ai/ha",98
same,Plant response rating,"[6]; Preemergence, 31 g ai/ha",45
same,Plant response rating,"[6]; Preemergence, 62 g ai/ha",95
same,Plant response rating,"[6]; Preemergence, 125 g ai/ha",100
same,Plant response rating,"[6]; Preemergence, 250 g ai/ha",100
same,plant injury at 62 g/ha,"[7]; post-emergence, Postemergence",50%
same,plant injury at 125 g/ha,"[7]; post-emergence, Postemergence",55%
same,plant injury at 250 g/ha,"[7]; post-emergence, Postemergence",65%
same,plant injury at 62 g/ha,"[7]; pre-emergence, Preemergence",25%
same,plant injury at 125 g/ha,"[7]; pre-emergence, Preemergence",65%
same,plant injury at 250 g/ha,"[7]; pre-emergence, Preemergence",75%
same,pest or weed control at 31 g/ha,"[8]; post-emergence, Postemergence",15%
same,pest or weed control at 62 g/ha,"[8]; post-emergence, Postemergence",15%
same,pest or weed control at 125 g/ha,"[8]; post-emergence, Postemergence",30%
same,pest or weed control at 250 g/ha,"[8]; post-emergence, Postemergence",55%
same,pest or weed control at 31 g/ha,"[8]; pre-emergence, Preemergence",98%
same,pest or weed control at 62 g/ha,"[8]; pre-emergence, Preemergence",98%
same,pest or weed control at 125 g/ha,"[8]; pre-emergence, Preemergence",100%
same,pest or weed control at 250 g/ha,"[8]; pre-emergence, Preemergence",100%
same,Plant response rating,"[9]; Postemergence, 31 g ai/ha",10
same,Plant response rating,"[9]; Postemergence, 62 g ai/ha",10
same,Plant response rating,"[9]; Postemergence, 125 g ai/ha",25
same,Plant response rating,"[9]; Postemergence, 250 g ai/ha",35
same,Plant response rating,"[9]; Preemergence, 31 g ai/ha",75
same,Plant response rating,"[9]; Preemergence, 62 g ai/ha",80
same,Plant response rating,"[9]; Preemergence, 125 g ai/ha",95
same,Plant response rating,"[9]; Preemergence, 250 g ai/ha",100
"CCOc1cc(=O)n(-c2ccc(F)cc2)nc1Cc1ccnc(C(F)(F)F)c1 [Compound 25, 5-ethoxy-2-(4-fluorophenyl)-6-[[2-(trifluoromethyl)-4-pyridinyl]methyl]-3 (2H)-pyridazinone]","Plant response rating: Poinsettia, Wild","[1]; Preemergence, 8 g ai/ha",0
same,"Plant response rating: Poinsettia, Wild","[1]; Preemergence, 16 g ai/ha",0
same,"Plant response rating: Poinsettia, Wild","[1]; Preemergence, 31 g ai/ha",0
same,"Plant response rating: Poinsettia, Wild","[1]; Preemergence, 62 g ai/ha",50
same,"Plant response rating: Poinsettia, Wild","[1]; Preemergence, 125 g ai/ha",10
same,Plant response rating,"[2]; Preemergence, 62 g ai/ha",100
same,Plant response rating,"[2]; Preemergence, 125 g ai/ha",100
same,Plant response rating,"[2]; Preemergence, 250 g ai/ha",100
same,plant injury at 62 g/ha,"[3]; pre-emergence, Preemergence",40%
same,plant injury at 125 g/ha,"[3]; pre-emergence, Preemergence",50%
same,plant injury at 250 g/ha,"[3]; pre-emergence, Preemergence",70%
same,pest or weed control at 62 g/ha,"[4]; pre-emergence, Preemergence",100%
same,pest or weed control at 125 g/ha,"[4]; pre-emergence, Preemergence",70%
same,pest or weed control at 250 g/ha,"[4]; pre-emergence, Preemergence",95%
same,pest or weed control at 31 g/ha,"[5]; pre-emergence, Preemergence",40%
same,pest or weed control at 62 g/ha,"[5]; pre-emergence, Preemergence",85%
same,pest or weed control at 125 g/ha,"[5]; pre-emergence, Preemergence",90%
same,pest or weed control at 250 g/ha,"[5]; pre-emergence, Preemergence",90%
same,Plant response rating,"[6]; Preemergence, 31 g ai/ha",95
same,Plant response rating,"[6]; Preemergence, 62 g ai/ha",95
same,Plant response rating,"[6]; Preemergence, 125 g ai/ha",100
same,Plant response rating,"[6]; Preemergence, 250 g ai/ha",98
same,plant injury at 62 g/ha,"[7]; pre-emergence, Preemergence",20%
same,plant injury at 125 g/ha,"[7]; pre-emergence, Preemergence",35%
same,plant injury at 250 g/ha,"[7]; pre-emergence, Preemergence",65%
same,pest or weed control at 31 g/ha,"[8]; pre-emergence, Preemergence",100%
same,pest or weed control at 62 g/ha,"[8]; pre-emergence, Preemergence",100%
same,pest or weed control at 125 g/ha,"[8]; pre-emergence, Preemergence",100%
same,pest or weed control at 250 g/ha,"[8]; pre-emergence, Preemergence",100%
same,Plant response rating,"[9]; Preemergence, 31 g ai/ha",35
same,Plant response rating,"[9]; Preemergence, 62 g ai/ha",85
same,Plant response rating,"[9]; Preemergence, 125 g ai/ha",95
same,Plant response rating,"[9]; Preemergence, 250 g ai/ha",98
